# Where two headings read alike, the source gives them in different places.
# What was measured:
# [1] = system: CHK2; settings: Table S1, known target value; no reference given; read-out: Kinase target (IC50) CHK2; cited from earlier work
# [2] = target: T1, GST-VRK2A (Homo sapiens, UniProt Q86Y07); test: In vitro kinase assay, GST-VRK2A autophosphorylation; type: biochemical; settings: for IC50: read-out: IC50 (µM) GST-VRK2A Auto-phosphorylation
# T1 construct: a full-length protein of 508 aminoacids (known as VRK2 and VRK2A); made in house; host or cells: E. coli BL21
# [3] = target: T2, GST-VRK1 (Homo sapiens, UniProt Q99986); test: In vitro kinase assay, GST-VRK1 phosphorylation of histone H3; type: biochemical; settings: 5 µM ATP; average of three experiments, ± standard deviation; No inhibition is lack of effect at 100 µM
# T2 construct: made in house
# T2 sequence (Q99986 1-396): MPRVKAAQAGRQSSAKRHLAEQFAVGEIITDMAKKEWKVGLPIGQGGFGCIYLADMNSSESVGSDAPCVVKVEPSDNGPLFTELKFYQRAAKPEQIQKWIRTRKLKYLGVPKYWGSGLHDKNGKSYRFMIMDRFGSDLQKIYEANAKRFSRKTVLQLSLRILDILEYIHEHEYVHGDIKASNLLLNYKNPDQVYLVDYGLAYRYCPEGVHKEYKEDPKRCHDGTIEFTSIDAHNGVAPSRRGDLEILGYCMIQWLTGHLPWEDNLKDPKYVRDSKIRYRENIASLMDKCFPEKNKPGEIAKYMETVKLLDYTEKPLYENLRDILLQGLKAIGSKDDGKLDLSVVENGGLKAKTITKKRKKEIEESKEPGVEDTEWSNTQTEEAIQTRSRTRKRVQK
# [4] = target: T3, VRK2A (Homo sapiens, UniProt Q86Y07); test: In vitro kinase assay, VRK2A kinase activity (autophosphorylation and H3 phosphorylation); type: biochemical; settings: for IC50: H3 phosphorylation or autophosphorylation, read-out: Concentration giving fifty percent inhibition of VRK2A activity
# T3 construct: a full-length protein of 508 aminoacids (known as VRK2 and VRK2A); made in house; host or cells: E. coli BL21
# [5] = target: T1, GST-VRK2A; test: In vitro kinase assay, GST-VRK2A phosphorylation of histone H3; type: biochemical
# [6] = target: T2, GST-VRK1; test: In vitro kinase assay, GST-VRK1 autophosphorylation; type: biochemical; settings: 5 µM ATP, average of three experiments, ± standard deviation, No inhibition is lack of effect at 100 µM
# [7] = system: Cdk1; settings: Table S1, known target value; no reference given; read-out: Kinase target (IC50) Cdk1; cited from earlier work
# [8] = system: Cdk1/cyclinB; settings: read-out: Fifty percent inhibition of Cdk1/cyclinB; cited from earlier work
# [9] = system: B-RafV600E; settings: Table S1, known target value; no reference given; read-out: Kinase target (IC50) B-RafV600E; cited from earlier work
# [10] = target: T4, human VRK1 (Homo sapiens, UniProt Q99986); test: In vitro kinase assay, VRK1 kinase activity (autophosphorylation and H3 phosphorylation); type: biochemical
# T4 construct: made in house
# T4 sequence (Q99986 1-396): T2 sequence (Q99986 1-396)
# [11] = system: MSK1; settings: Table S1, known target value; no reference given; read-out: Kinase target (IC50) MSK1; cited from earlier work
# [12] = target: vaccinia virus B1R kinase (Vaccinia virus, UniProt P16913); type: biochemical; settings: p53 and histone H3 as substrates, ATP 5 µM
# [13] = system: CK1; settings: read-out: Concentration inhibiting CK1; cited from earlier work
# [14] = system: S6K; settings: Table S1, known target value; no reference given; read-out: Kinase target (IC50) S6K; cited from earlier work
# [15] = system: DNA-PKcs; settings: Table S1, known target value; no reference given; read-out: Kinase target (IC50) DNA-PKcs; cited from earlier work
# [16] = system: DNA-PK; settings: Table S1, known target value; no reference given; read-out: Kinase target (IC50) DNA-PK; cited from earlier work
# [17] = system: Mek1; settings: Table S1, known target value; no reference given; read-out: Kinase target (IC50) Mek1; cited from earlier work
# [18] = system: B-Raf; settings: Table S1, known target value; no reference given; read-out: Kinase target (IC50) B-Raf; cited from earlier work
# [19] = system: LCK; settings: read-out: Kinase target (IC50) LCK; Table S1, known target value; no reference given; cited from earlier work
# [20] = system: FYN; settings: read-out: Kinase target (IC50) FYN; Table S1, known target value; no reference given; cited from earlier work
# [21] = system: CK1δ; settings: read-out: Kinase target (IC50) CK1δ; Table S1, known target value; no reference given; cited from earlier work
# [22] = system: JNK; settings: Table S1, known target value; no reference given; read-out: Kinase target (IC50) JNK; cited from earlier work
# [23] = target: Aurora C kinase; settings: Table S1, known target value; no reference given; cited from earlier work
# [24] = target: T5, VRK2B (Homo sapiens, UniProt Q86Y07); test: In vitro kinase assay, VRK2B kinase activity; type: biochemical; settings: inhibitor 100 µM, 5 µM ATP
# T5 construct: made in house; host or cells: E. coli BL21
# [25] = system: CDK; settings: read-out: Kinase target (IC50) CDK; Table S1, known target value; no reference given; cited from earlier work
# [26] = system: GSK-3β; settings: Table S1, known target value; no reference given; read-out: Kinase target (IC50) GSK3β; cited from earlier work
# [27] = inhibitor 100 µM, 5 µM ATP, autophosphorylation and H3 phosphorylation
# [28] = 5 µM ATP, average of three experiments, ± standard deviation, No inhibition is lack of effect at 100 µM
Compound,IC50 (µM) GST-VRK1 H3 phosphorylation [3],IC50 (µM) GST-VRK1 Auto- phosphorylation [6],"Effect on VRK2 (VRK2A) kinase activity at 100 µM inhibitor (in words) [4, 27]","Effect on VRK1 kinase activity at 100 µM inhibitor (in words) [10, 27]","IC50 (µM) GST-VRK2A Auto-phosphorylation [2, 28]","IC50 (µM) GST-VRK2A H3 phosphorylation [5, 28]",other results
"NC(=O)Nc1cc(-c2cccc(F)c2)sc1C(=O)N[C@H]1CCCNC1 [AZD7762, 5-(3-Fluorophenyl)-3-ureidothiophene-N-[(S)-piperidin-3-yl]-2-carboxamide]",No inhibition,No inhibition,,,,,IC50 [1]: < 0.01 µM; IC50 [2]: 40 ± 1.07 µM; IC50 ([4]; 5 µM ATP): 30 µM; IC50 [5]: 24.4 ± 1.07 µM
"O=C1Nc2ccccc2C1=Cc1c(Cl)[nH]c2ccccc12 [Cdk1 Inhibitor, 3-(2-Chloro-3-indolylmethylene)-1,3-dihydroindol-2-one]",No inhibition,No inhibition,more sensitive,,,,IC50 [2]: 11.2 ± 1.33 µM; IC50 ([4]; 5 µM ATP): 4 µM; IC50 [7]: 5.8 µM; IC50 [8]: 5.8 µM; IC50 [5]: 10.8 ± 1.29 µM
"OCCn1cc(-c2ccc3c(c2)CCC3=NO)c(-c2ccncc2)n1 [GDC-0879, 5-[1-(2-Hydroxy-ethyl)-3-pyridin-4-yl-1H-pyrazol-4-yl]-indan-1-one oxime]",No inhibition,No inhibition,None of them was able to induce a significant inhibition,None of them was able to induce a significant inhibition,,,IC50 [9]: 0.00013 µM
COc1cc(OC)c(C=C2C(=O)Nc3ccccc32)c(OC)c1 [IC261],,,,,,,"IC50 [11]: 6 µM; IC50 [2, 28]: 11.1 ± 1.1 µM; Sensitivity of vaccinia virus B1R kinase to inhibitor (in words) [12]: not; IC50 [3]: 55.9 ± 1.04 µM; IC50 ([4]; 5 µM ATP): 10 µM; IC50 [13]: 6 µM; IC50 [5, 28]: 14.7 ± 1.13 µM; IC50 ([6]; read-out: IC50 (µM) GST-VRK1 Auto- phosphorylation): 121.4 ± 1.05 µM; IC50 [14]: 6 µM"
"CC(=O)c1ccc(N2CCOCC2)cc1O [IC86621, 1-(2-Hydroxy-4-morpholin-4-yl-phenyl)ethanone]",No inhibition,No inhibition,no noticeable effect,no noticeable effect,No inhibition,No inhibition,IC50 [15]: 0.1 µM
"O=c1cc(N2CCOCC2)oc2c1ccc1ccccc12 [NU7026, 2-(Morpholin-4-yl)-benzo[h]chomen-4-one]",No inhibition,No inhibition,no noticeable effect,no noticeable effect,No inhibition,No inhibition,IC50 [16]: 0.23 µM
"COc1cccc(-c2cc(=O)c3ccccc3o2)c1N [PD98059, 2’-Amino-3’-methoxyflavone]",No inhibition,No inhibition,None of them was able to induce a significant inhibition,None of them was able to induce a significant inhibition,No inhibition,No inhibition,IC50 [17]: […]
"CCCS(=O)(=O)Nc1ccc(F)c(C(=O)c2c[nH]c3ncc(Cl)cc23)c1F [PLX-4720, N-(3-(5-chloro-1H-pyrrolo[2,3-b]pyridine-3-carbonyl)-2,4-difluorophenyl)propane-1-sulfonamide]",No inhibition,No inhibition,None of them was able to induce a significant inhibition,None of them was able to induce a significant inhibition,No inhibition,No inhibition,IC50 [18]: […]
"Cc1ccc(-c2nn(C(C)(C)C)c3ncnc(N)c23)cc1 [PP1, 4-amino-5-(4-methylphenyl)-7-(t-butyl)pyrazolo-d-3,4-pyridine]",No inhibition,No inhibition,no effect,no effect,No inhibition,No inhibition,IC50 [19]: […]; IC50 [20]: […]; IC50 [21]: 1 µM
"Oc1c2ccccc2c2c3c(cccc13)N=N2 [SP600125, Anthra[1,9-cd]pyrazol-6(2H)-one, 1,9-pyrazoloanthrone]",No inhibition,No inhibition,None of them was able to induce a significant inhibition,None of them was able to induce a significant inhibition,,,IC50 [2]: 27.6 ± 1.09 µM; IC50 [22]: 0.04 µM; IC50 [5]: 11.1 ± 1.21 µM
"Cc1cc(Nc2cc(N3CCN(C)CC3)nc(Sc3ccc(NC(=O)C4CC4)cc3)n2)[nH]n1 [VX-680, N-[4-[4-(4-Methylpiperazin-1-yl)-6-(3-methyl-1H-pyrazol-5-ylamino)pyrimidin-2-sulfanyl]phenyl]-cyclopropanecarboxamide]",No inhibition,No inhibition,without noticeable inhibitory effect,without noticeable inhibitory effect,,,IC50 [23]: […]; Effect on VRK2B kinase activity at 100 µM inhibitor (in words) [24]: without noticeable inhibitory effect
Indirubin-3’-monoxime,,,,,,,IC50 [25]: 0.05 to 0.1 µM; IC50 [26]: 0.005 to 0.05 µM; Effect on VRK2 (VRK2A) kinase activity at 100 µM inhibitor (in words) [4]: little effect; Effect on VRK1 kinase activity at 100 µM inhibitor (in words) [10]: little effect
